Source: patent US20070117861A1, “Treatment or prevention of cardiovascular and respiratory disorders with novel substituted cyclic-amp specific phosphodiesterase inhibitors” (University of South Carolina, priority 2003, published 2007)

Tests used:
PDE1 = details: reported in Hatzelmann et al. 2001; read-out: IC50 for roflumilast activity on PDE1; cited from earlier work
PDE5 = PDE5 (Homo sapiens, UniProt O76074); details: ratio of cited IC50 values
Description: PDE inhibition is then determined by the presence or absence of substrate degradation products. […] The relative ability of an inhibitory compound to slow or prevent the degradation of tritiated cyclic nucleotides is one test that is indicative of how well the compound in question selects one or more of each isoform to inhibit.

PDE-4 = tested on: T1, PDE-4; details: reported in Hatzelmann et al. 2001; read-out: IC50 for roflumilast activity on PDE-4; cited from earlier work
T1 construct: other: reported in Hatzelmann et al. 2001

[1] = tested on: guinea pig ventricular myocytes; assay: action potentials, nystatin-perforated whole-cell patch-clamp, ventricular myocytes; type: cell-based
Description: (§1) The effects of a novel synthesized cAMP specific phosphodiesterase inhibitor MS23 on action potential parameters were examined and compared with those of milrinone and rolipram in isolated guinea-pig myocytes. Action potentials (AP) were recorded under nystatin-perforated whole-cell patch-clamp mode at a temperature of 35±0.5° C. […] In comparison, rolipram (30 μM) shortened APD90 from 318.3±8.9 to 274.6±9.8 msec (P<0.05, n=3) in ventricular cells. […] In contrast, milrinone (10 μM) elongated ventricular APD90 from 287.9±10.3 msec to 327.8±17.4 msec (P<0.05, n=4) and produced a significant delay of phase 1 and plateau phase, but acceleration of phase 3 repolarization (APD90 shortened from 153.9±12.1 to 135.5±12.3 msec, P<0.05, n=4) in atrial cells.
(§2) Single myocytes were isolated by enzymatic digestion of guinea pig hearts. The animal was anesthetized by I.P. injection of pentobarbital sodium (50 mg/kg) and the heart was excised and retrogradely perfused with oxygenated Tyrode solution containing (in […]): 140 NaCl, 5.4 KCl, 1.5 MgCl2, 1.8 CaCl2, 0.33 NaH2PO4, 5.5 Glucose, 19 Hepes (pH 7.4 with NaOH at 36.5° C.). The enzymatic digestion was carried out with Ca^2+-free Tyrode solution by adding 0.4 mg/ml of collagenase type II (306 units/mg) and 1.6 mg/ml Bovine Serum Albumin V.
(§3) Transmembrane potentials were recorded under nystatin-perforted whole-cell current-clamp mode at 36.5° C. when the cells were bathed in Tyrode solution. The finished pipette had resistance of 4-7 MΩ when filled with a perforate solution containing (in mM): 140 KCl, 2 MCl2, 0.5 CaCl2, 10 Glucose, 10 Hepes (pH 7.2 with KOH), and 8.64 nM nystatin. The correction of junction potential was carried out off-line. The data acquisition was performed with an Axonpatch-200B amplifier/Digidata 1322A/Clampex 8.2 system (Axon Instrument, Inc., USA). Action potential was evoked by consecutive 10 msec rectangular current pulses at an interval of 2 seconds. APD was measured at 90% of repolarization (APD^90). The cell was held at a −40 mV membrane potential to inactivate the sodium channels. L-type calcium current was elicited by a step pulse from −40 mV to 0 mV with a duration of 300 msec.

[2] = tested on: guinea pig atrial myocytes; assay: action potentials, nystatin-perforated whole-cell patch-clamp, atrial myocytes; type: cell-based
Description: as §1, §2, §3

solubility = type: physicochemical
[3] = onset of therapeutic effect after administration; type: in vivo
[4] = blood pressure and heart rate in anesthetized rats after oral gavage; type: in vivo; details: anesthetized female rat; for Mean Blood Pressure: saline control 186; for Heart Rate: saline control 364
Description: This example illustrates the effect that MS23 has on blood pressure reduction through an in vivo experiment. Specifically, this example illustrates the effect of an intravenous bolus injection of MS23 on blood pressure. Female Sprague-Dawley rats weighing 200-225 g were anesthetized with pentobarbital (30 mg/kg body weight (bw), i.p.). The animals were positioned supinely on a heat plate that was controlled by an automatic temperature controller system (TC-324B, Warner Instrument Corp.) to maintain its body temperature constant (36° ±0.5° C.) during the experiment. The trachea, right carotid artery, and left femoral vein were exposed. The trachea was cannulated and the animal was breathed with air through a respirator at a rate of 65-70/min and an inspiration pressure of approximately 10 cm H2O. PE catheters were implanted into the carotid artery and femoral vein, respectively. The animal was heparinized by i.v. injection of approximately 300 units of heparin dissolved in 0.3 ml of 0.9% saline. Arterial pressure was recorded from the carotid artery catheter connected to a physiological pressure transducer (SP 844, Capto Company, Norway) that was coupled to a bridge amplifier (PowerLab, ADInstruments). The data was digitized through a 16 SP interface and acquire on-line with Chart 4.0 software (PowerLab, ADInstruments) and stored to a personal computer.
MS23 was administered to two female rats via oral gavage at a dose of 26 and 80 mg/kg.bw, respectively. The agent was dissolved in 0.9% saline in a volume of 0.5 ml. The same volume of saline alone was administered to two control animals. After 15 minutes, the animal was anesthetized with pentobarbital (30 mg/kg.bw, i.p.) and same surgery was performed except that the femoral vein was not exposed and there was no i.v. administration of the test agent. The carotid blood pressure and heart rate were monitored and recorded for 60 minutes using the same method described above. The initial recording was made within 45 to 65 minutes after performing oral gavage. The results are reported in the following Table 1 (the MBP and HR were measured within 30 minutes after the surgery).

[5] = blood pressure in anesthetized dogs after intravenous bolus injection; type: in vivo; details: for Left Ventricular End Diastolic Pressure: control 8.7; for Blood Pressure Min: control 46.6; for Blood Pressure Mean: control 67.2; for Left Ventricular Systolic Pressure: control 78.5; for Blood Pressure Max: control 99.8; for Heart Rate: control 119.8, in bpm (unit assumed)
Description: This example illustrates the effect that MS23 has on blood pressure reduction through an in vivo experiment in dogs. An intravenous bolus injection of MS23 was administered to anesthetized dogs at a dose of 0.25 mg/kg.bw. […] Higher doses of MS23 produced a greater decrease in blood pressure without affecting heart rate and left ventricular end diastolic pressure.

[6] = tested on: high K+ contracted porcine kidney main artery; assay: tension assay, high K+ contracted porcine kidney vessel rings; details: tension assay trace, FIG. 5
Description: The trachea, main bronchi and vessel rings (2-3 mm in width) of Sprague-Dawley rats, Harley Guinea Pigs and porchine were used to carry out the tension assay. The tissue rings were bathed in 3.5 ml or 30 ml tissue chamber and aired with 95% O2/5% CO2 at 37° C. The tension was measured using a tension transducer linked to a PowerLab system (ADInstruments, USA). The basal tension was set to 0.7-1.0 g step by step with a 0.1-0.2 g increment. After the base tension reached steady-state in control K-H solution, the rings were contracted for 5-10 minutes by a 70 mM high K^+ K-H solution and relaxed by switching back to normal K-H solution. The alternation between 70 mM K^+ K-H and normal K-H was repeated two more times to equilibrate the tissue before the experiment.

O=C(Nc1c(Cl)cncc1Cl)c1ccc(OC(F)F)c(OCC2CC2)c1 [roflumilast]
IC50 (PDE1): > 10 µM
selectivity for PDE-4 as compared with PDE5 (PDE5 IC50/PDE-4 IC50) (PDE5): at least 10,000
IC50 (PDE-4): 0.8 nM

COc1ccc(C2CNC(=O)C2)cc1OC1CCCC1 (stereo not shown) [rolipram, reference compound]
APD90 ([1]; ventricular cells, 30 μM, before drug 318.3±8.9 msec, P<0.05, n=3): 274.6 ± 9.8 ms
effect on action potential phases ([2]; atrial cells, 30 μM): small delay of phase 1 and plateau phase, but acceleration of phase 3 repolarization

Cc1[nH]c(=O)c(C#N)cc1-c1ccncc1 [milrinone]
effect on APD90 ([1]; ventricular cells, 10 μM, after treatment with either rolipram or MS23): markedly shortened
APD90 ([1]; ventricular cells, 10 μM, before drug 287.9±10.3 msec, P<0.05, n=4): 327.8 ± 17.4 ms
APD90 ([2]; atrial cells, 10 μM, before drug 153.9±12.1 msec, P<0.05, n=4): 135.5 ± 12.3 ms

CCCN(CC)C(C)C(=O)Nc1[nH]c(CCSC)c(C)c1C(N)=O (stereo not shown) [MS23]
prolongation of ventricular APD ([1]; from 1 to 100 μM): did not prolong
APD90 (action potential duration at 90% of repolarization) ([1]; ventricular cells, 30 μM, before drug 304.9±24.0 msec, P<0.05, n=8): 254.9 ± 28.4 ms
solubility in physiological saline (solubility): soluble
onset of therapeutic effect (response occurs) ([3]; after intraperitoneal administration): < 3 min
onset of therapeutic effect (response occurs) ([3]; after oral gavage): ≤ 30 min
Mean Blood Pressure ([4]; oral gavage 26 mg/kg·bw): 156 mm Hg
Heart Rate ([4]; oral gavage 26 mg/kg·bw): 384 beat/min
Mean Blood Pressure ([4]; oral gavage 80 mg/kg·bw): 126 mm Hg
Heart Rate ([4]; oral gavage 80 mg/kg·bw): 300 beat/min
effect on APD ([2]; atrial cells, 30 μM): no effect
prolongation of atrial APD ([2]; from 1 to 100 μM): did not prolong
Left Ventricular End Diastolic Pressure ([5]; Bolus 1 mg/kg·bw): 9.0
Blood Pressure Min ([5]; Bolus 1 mg/kg·bw): 39.8
Blood Pressure Mean ([5]; Bolus 1 mg/kg·bw): 58.4
Left Ventricular Systolic Pressure ([5]; Bolus 1 mg/kg·bw): 71.8
Blood Pressure Max ([5]; Bolus 1 mg/kg·bw): 90.5 mmHg
Heart Rate ([5]; Bolus 1 mg/kg·bw): 118.2
Left Ventricular End Diastolic Pressure ([5]; Bolus 2 mg/kg·bw): 9.2
Blood Pressure Min ([5]; Bolus 2 mg/kg·bw): 33.7
Blood Pressure Mean ([5]; Bolus 2 mg/kg·bw): 48.0
Left Ventricular Systolic Pressure ([5]; Bolus 2 mg/kg·bw): 63.1
Blood Pressure Max ([5]; Bolus 2 mg/kg·bw): 76.8 mmHg
Heart Rate ([5]; Bolus 2 mg/kg·bw): 109.7
reduction in blood pressure ([5]; intravenous bolus 0.25 mg/kg.bw): 4 mmHg

CCN(CC)CC(=O)Nc1c(C)cccc1C [Lidocaine]
effect on tension of high K+ contracted porcine kidney main artery [6]: did not relax

NC[C@H](O)c1ccc(O)c(O)c1 [Norepinephrine]
effect on tension of high K+ contracted porcine kidney main artery [6]: contracted
